{"source": "paper PMC8389614", "about": "“A Comparison of Acute Pharmacological Effects of Methylone and MDMA Administration in Humans and Oral Fluid Concentrations as Biomarkers of Exposure” (Biology, 2021)", "assay": "Oral fluid to blood (OF/B) concentration ratio and plasma concentration", "settings": "human"}
{"compound": "CNC(C)C(=O)c1ccc(C)cc1", "note": "(stereo not shown) [mephedrone, 4-methylmethcathinone]", "values": [{"measurement": "Kp", "setting": "oral, 200 mg", "value": 22.3}, {"measurement": "Kp", "setting": "po, 100 mg", "value": 49.4}, {"measurement": "Kp", "setting": "po, 150 mg", "value": 4.28}, {"measurement": "Kp", "setting": "po, 200 mg", "value": 11.7}]}
